Assay results as given in patent US20250057963A1, “DISCOVERY OF PIPERLONGUMINE AS A NOVEL E3 LIGASE LIGAND” (University of Florida Research Foundation, Incorporated, priority 2021, published 2025).
“Also recorded” adds a separate entry of the source.

Tests used:
PARP = PARP cleavage (apoptosis indicator) in MOLT4 cells; format: cell-based, Human; details: 6 h
Description: (§1) Cells were collected and lysed in RIPA lysis buffer (Cat. #BP-115DG, Boston Bio Products, Ashland, MA, USA) supplemented with protease and phosphatase inhibitor cocktails (Cat. #PPC1010, Sigma-Aldrich, St. Louis, MO, USA). Protein samples were made and immunoblotting was performed as described previously (Khan et al., 2019; Lv et al., 2021). Antibodies purchased from Cell Signaling Technologies (CST) and the dilutions are as follows: Biotin (Cat. No. 5571S, 1:1000), PARP (Cat. No. 9542S, 1:1000), c-Myc (Cat. No. 5605S, 1:1000), MCL1 (Cat. No. 5453S, 1:1000), and ALK (Cat. No. 3791S, 1:1000). KEAP1 antibody was purchased from Proteintech (Cat. No. 10503-2-AP, 1:1000). CDK9 antibody was purchased from Santa Cruz (Cat. No. sc-13130, 1:500). V5-tag antibody was purchased from Bethyl (Cat. No. A190-120P, 1:1000). j-actin antibody was purchased from MP Biomedicals (Cat. No. 8691001, 1:20 000).

CDK9 = CDK9 (Homo sapiens, UniProt P50750); test: CDK9 degradation and c-Myc/MCL-1 downregulation in LNCaP cells (immunoblot); format: cell-based; set-up: endogenous in cells; host or cells: MOLT4, 293T, K562, NCI-H1299, LNCaP
Sequence of CDK9 (P50750 whole entry): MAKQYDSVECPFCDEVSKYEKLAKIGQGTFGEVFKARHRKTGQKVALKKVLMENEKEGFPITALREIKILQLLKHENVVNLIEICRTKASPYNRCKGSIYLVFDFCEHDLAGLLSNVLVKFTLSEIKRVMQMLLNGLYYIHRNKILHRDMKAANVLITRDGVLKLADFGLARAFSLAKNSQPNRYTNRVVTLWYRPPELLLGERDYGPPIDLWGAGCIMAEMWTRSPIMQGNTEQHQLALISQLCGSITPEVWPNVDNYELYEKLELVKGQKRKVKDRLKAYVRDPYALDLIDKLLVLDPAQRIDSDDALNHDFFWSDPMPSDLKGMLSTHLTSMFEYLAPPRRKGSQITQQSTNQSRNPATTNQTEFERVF
Description: Human T-ALL MOLT4 (Cat. No. CRL-1582), K562 (Cat. No. CCL-243), NCI-H1299 (Cat. No. CRL-5803), NCI-H2228 (Cat. No. CRL-5935), LNCaP (Cat. No. CRL-1740), 22RV1 (Cat. No. CRL-2505), PC3 (Cat. No. CRL-1435), DU145 (Cat. No. HTB-81), and epithelial kidney HEK 293T (293T, Cat. No. ACS-4500) cell lines were recently purchased from American Type Culture Collection (ATCC, Manassas, VA, USA). MOLT4, K562, NCI—H-1299, NCI-H2228, LNCap, and 22RV 1 cell lines were cultured in RPMI 1640 medium (Cat No. 22400-089, Thermo Fisher Scientific, Waltham, MA, USA) supplemented with 10% (v/v) heat-inactivated fetal bovine serum (FBS, Cat. No. S11150H, Atlanta Biologicals, Flowery Branch, GA, USA), 100 U/mL penicillin and 100 pig/mL streptomycin (Pen-Strep, Cat. No. 15140122, Thermo Fisher Scientific). PC3 cells were cultured in complete F—12K medium (Kaighn's modification of Ham's F-12 medium, Cat. No. 30-2004, ATCC) supplemented with 10% (v/v) heat-inactivated FBS, 100 U/mL penicillin, and 100 μg/mL streptomycin. DU145 cells were cultured in complete Eagle's Minimum Essential Medium (EMEM, Cat. No. 30-2003, ATCC) supplemented with 10% (v/v) heat-inactivated FBS, 100 U/mL penicillin, and 100 μg/mL streptomycin. […]
Immunoblot data were quantified using the ImageJ (v 1.53a) software from NIH. […]

CDK10 = molecular target: T1, CDK10 (Homo sapiens, UniProt Q15131); test: CDK10 degradation in MOLT4 cells (TMT proteomics, immunoblot); format: cell-based
T1 construct: endogenous in cells; host or cells: MOLT4
T1 sequence (Q15131 whole entry): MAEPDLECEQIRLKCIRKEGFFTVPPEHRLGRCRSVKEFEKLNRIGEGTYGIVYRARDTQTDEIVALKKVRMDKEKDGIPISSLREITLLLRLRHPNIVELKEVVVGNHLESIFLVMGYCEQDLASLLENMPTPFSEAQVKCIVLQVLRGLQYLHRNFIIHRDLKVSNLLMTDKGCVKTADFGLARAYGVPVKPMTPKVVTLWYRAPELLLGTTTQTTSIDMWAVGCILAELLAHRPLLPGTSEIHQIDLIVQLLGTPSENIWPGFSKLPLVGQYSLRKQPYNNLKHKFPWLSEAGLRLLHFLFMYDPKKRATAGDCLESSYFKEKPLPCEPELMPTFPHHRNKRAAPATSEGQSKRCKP
Description: as §1
Sample Preparation and LC-MS/MS analysis. […]
Data processing and analysis. Proteins were identified and MS3 reporter ions quantified using MaxQuant (version 2.0.3.0; Max Planck Institute) against the Homo sapiens UniprotKB database (March 2021) with a parent ion tolerance of 3 ppm, a fragment ion tolerance of 0.5 Da, and a reporter ion tolerance of 0.003 Da. […]

SMILES: COc1cc(/C=C/C(=O)N2CCC=CC2=O)cc(OC)c1OCCN1CCN(C(=O)CN2CCC(C(=O)Nc3ncc(SCc4ncc(C(C)(C)C)o4)s3)CC2)CC1 [compound 955, (E)-N-(5-(((5-(tert-butyl)oxazol-2-yl)methyl)thio)thiazol-2-yl)-1-(2-(4-(2-(2,6-dimethoxy-4-(3-oxo-3-(6-oxo-3,6-dihydropyridin-1(2H)-yl)prop-1-en-1-yl)phenoxy)ethyl)piperazin-1-yl)-2-oxoethyl)piperidine-4-carboxamide]
- induction of PARP cleavage / apoptotic cell death compared with SNS-032 (PARP): more apoptotic cell death compared with SNS-032; also recorded: more potent in inducing PARP cleavage than SNS-032
- CDK9 degradation and downregulation of c-Myc and MCL-1 (CDK9): dose-dependent manner; also recorded: potently degraded CDK9 and downregulated c-Myc and MCL-1
- dependence of CDK10 degradation (MG132, MLN4924 pre-treatment) (CDK10): UPS—and CRL-dependent manner; also recorded: proteasome- and CRL-dependent manner
- CDK10 degradation (CDK10; 0.1 μM 955, 1 μM SNS-032): significantly decreased CDK10; also recorded: potently degrade CDK10
